Values joined by “and” are separate entries in the source; they are usually repeats but may differ in a detail not shown here. Equal values may be shown once. Inconclusive results and toxic doses are left out. The calls were made as follows: active = survival T/C of 150% or more; inactive = T/C below 125% in these data.
System: P388 leukemia ip, CD2F1 mice, survival T/C
Assay: NCI In Vivo Anticancer Drug Screen. Data for tumor model P388 Leukemia (intraperitoneal) in CD2F1 (CDF1) mice
Conditions: endpoint: median survival time, higher = longer survival
Summary of the method: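 Mice carrying the transplanted tumor received test compound or vehicle. Survival was recorded in each group, and the value is the treated-group measurement divided by that of the vehicle-treated control group.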

[1] = dose: 25.0 mg/kg/injection, schedule: Q01DX001 (ip), vehicle: saline with Tween-80
[2] = dose: 50.0 mg/kg/injection, schedule: Q01DX009 (ip), vehicle: Klucel (hydroxypropylcellulose) (HPC)
[3] = dose: 100.0 mg/kg/injection, schedule: Q01DX009 (ip), vehicle: Klucel (hydroxypropylcellulose) (HPC)
[4] = dose: 200.0 mg/kg/injection, schedule: Q01DX009 (ip), vehicle: Klucel (hydroxypropylcellulose) (HPC)
[5] = dose: 25.0 mg/kg/injection, schedule: Q01DX009 (ip), vehicle: Klucel (hydroxypropylcellulose) (HPC)
[6] = dose: 50.0 mg/kg/injection, schedule: Q01DX009 (ip), vehicle: saline with Tween-80
[7] = dose: 100.0 mg/kg/injection, schedule: Q01DX009 (ip), vehicle: saline with Tween-80
[8] = dose: 200.0 mg/kg/injection, schedule: Q01DX009 (ip), vehicle: saline with Tween-80
[9] = dose: 400.0 mg/kg/injection, schedule: Q01DX009 (ip), vehicle: saline with Tween-80
[10] = dose: 100.0 mg/kg/injection, schedule: Q04DX003 (ip), vehicle: saline with Tween-80
[11] = dose: 200.0 mg/kg/injection, schedule: Q04DX003 (ip), vehicle: saline with Tween-80
[12] = dose: 100.0 mg/kg/injection, schedule: Q04DX002 (ip), vehicle: saline
[13] = dose: 200.0 mg/kg/injection, schedule: Q04DX002 (ip), vehicle: saline
[14] = dose: 400.0 mg/kg/injection, schedule: Q04DX002 (ip), vehicle: saline
[15] = dose: 50.0 mg/kg/injection, schedule: Q01DX005 (ip), vehicle: Klucel (hydroxypropylcellulose) (HPC)
[16] = dose: 100.0 mg/kg/injection, schedule: Q01DX005 (ip), vehicle: Klucel (hydroxypropylcellulose) (HPC)
[17] = dose: 200.0 mg/kg/injection, schedule: Q01DX005 (ip), vehicle: Klucel (hydroxypropylcellulose) (HPC)
[18] = dose: 50.0 mg/kg/injection, schedule: Q01DX005 (ip), vehicle: saline with Tween-80
[19] = dose: 100.0 mg/kg/injection, schedule: Q01DX005 (ip), vehicle: saline with Tween-80
[20] = dose: 200.0 mg/kg/injection, schedule: Q01DX005 (ip), vehicle: saline with Tween-80
[21] = dose: 60.0 mg/kg/injection, schedule: Q01DX005 (ip), vehicle: saline with Tween-80
[22] = dose: 120.0 mg/kg/injection, schedule: Q01DX005 (ip), vehicle: saline with Tween-80
[23] = dose: 240.0 mg/kg/injection, schedule: Q01DX005 (ip), vehicle: saline with Tween-80

Measured: T/C

CCCCn1c(Cl)c(/C=N\Nc2ccc([N+](=O)[O-])cc2)c2ccccc21
inactive: [1] 86 % of control | dose: 100.0 mg/kg/injection, schedule: Q01DX001 (ip), vehicle: saline with Tween-80 103 % of control and 94 % of control

c1ccc2c(c1)Sc1ccccc1N2Cc1cnc[nH]1
inactive: [2] 101 % of control | dose: 50.0 mg/kg/injection, schedule: Q01DX009 (ip), vehicle: alcohol 114 % of control | [3] 109 % of control | dose: 100.0 mg/kg/injection, schedule: Q01DX009 (ip), vehicle: alcohol 114 % of control | [4] 118 % of control

O=S(=O)(/N=C1/c2ccccc2/C(=N/S(=O)(=O)c2ccccc2)C2CC=CCC12)c1ccccc1 (stereo not drawn)
inactive: dose: 6.25 mg/kg/injection, schedule: Q01DX001 (ip), vehicle: saline with Tween-80 100 % of control | dose: 12.5 mg/kg/injection, schedule: Q01DX001 (ip), vehicle: saline with Tween-80 95 % of control | [1] 100 % of control

CSC(=S)S(=O)(=O)C12CC3CC(CC(C3)C1)C2
inactive: dose: 6.25 mg/kg/injection, schedule: Q01DX009 (ip), vehicle: Klucel (hydroxypropylcellulose) (HPC) 111 % of control | [5] 113 % of control and 114 % of control

CCOC(=O)c1ccc(Nc2sc(C(=O)c3ccc(Br)cc3)c(N)c2C#N)cc1
inactive: [6] 100 % of control | [7] 108 % of control | [8] 90 % of control | [9] 86 % of control

O=S1(=O)CS/C(=N/C(=S)N(Cc2ccccc2)Cc2ccccc2)N1c1ccccc1
inactive: dose: 50.0 mg/kg/injection, schedule: Q04DX003 (ip), vehicle: saline with Tween-80 89 % of control | [10] 104 % of control | [11] 111 % of control

Cn1nc(-c2ccc(Cl)c(Cl)c2)nc2c(=O)n(C)c(=O)nc1-2
inactive: dose: 12.5 mg/kg/injection, schedule: Q01DX001 (ip), vehicle: Klucel (hydroxypropylcellulose) (HPC) 102 % of control | dose: 25.0 mg/kg/injection, schedule: Q01DX001 (ip), vehicle: Klucel (hydroxypropylcellulose) (HPC) 107 % of control | dose: 50.0 mg/kg/injection, schedule: Q01DX001 (ip), vehicle: Klucel (hydroxypropylcellulose) (HPC) 103 % of control and 114 % of control

Cc1cc(N=Cc2ccc(C=Nc3ccc(Br)c(C)c3)cc2)ccc1Br
inactive: [2] 101 % of control | [3] 93 % of control | [4] 92 % of control

COC1C(/C=C/C(=O)CCl)OC2OC(C)(C)OC21 (stereo not drawn)
inactive: dose: 3.12 mg/kg/injection, schedule: Q01DX005 (ip), vehicle: saline 108 % of control | dose: 6.25 mg/kg/injection, schedule: Q01DX005 (ip), vehicle: saline 108 % of control | dose: 12.5 mg/kg/injection, schedule: Q01DX005 (ip), vehicle: saline 105 % of control

O=C(O)CNc1ncnc2c1CCc1ccccc1-2
inactive: [12] 100 % of control | [13] 99 % of control | [14] 91 % of control

CC(=O)CC(=O)C1C(S[As](C)C)CC2C3CCC4=CC(=O)C=CC4(C)C3C(=O)CC21C (stereo not drawn)
inactive: [15] 102 % of control | [16] 91 % of control and 94 % of control | [17] 94 % of control and 98 % of control

COc1ccccc1NC(CCN1CCCCC1)=NC(C)(C)C
inactive: [6] 111 % of control | [7] 106 % of control | [8] 104 % of control

C=C(C)C1CCC2=CC(CC3(C)OC3C3=CC(C(=O)OC)=C(C1)O3)OC2=O (stereo not drawn)
inactive: dose: 12.5 mg/kg/injection, schedule: Q01DX009 (ip), vehicle: Klucel (hydroxypropylcellulose) (HPC) 99 % of control | [5] 104 % of control | [2] 100 % of control

C/C(=C1/N=C(c2ccccc2)OC1=O)c1cccs1
inactive: [15] 106 % of control | [16] 100 % of control | [17] 96 % of control

N#Cc1ccccc1N1CCCC1=O
inactive: [12] 90 % of control | [13] 102 % of control | [14] 97 % of control

Cc1cc(OC(=O)N(C)C)nc(SCC(=O)c2ccc(Cl)cc2)n1
inactive: [2] 99 % of control | [3] 103 % of control | [4] 107 % of control

O=C(/C=C/c1ccccc1)N1CCCCC1
inactive: [7] 90 % of control | [8] 95 % of control | [9] 95 % of control

CC1CCCC(OC(=O)Nc2ccccc2)C1 (stereo not drawn)
inactive: [10] 105 % of control | [11] 103 % of control | dose: 400.0 mg/kg/injection, schedule: Q04DX003 (ip), vehicle: saline with Tween-80 96 % of control

CCCCCCCCCCCCCCCCS(=O)(=O)N/N=c1/sc2ccc(S(=O)(=O)O)cc2n1C
inactive: [2] 115 % of control | [3] 102 % of control | [4] 94 % of control

O=c1[nH]cnc2nn(C3OC(CO)C(O)C3O)cc12 (stereo not drawn)
inactive: dose: 0.39 mg/kg/injection, schedule: Q01DX009 (ip), vehicle: saline with Tween-80 104 % of control and 117 % of control | dose: 0.78 mg/kg/injection, schedule: Q01DX009 (ip), vehicle: saline with Tween-80 104 % of control and 116 % of control | dose: 1.56 mg/kg/injection, schedule: Q01DX009 (ip), vehicle: saline with Tween-80 107 % of control | dose: 3.12 mg/kg/injection, schedule: Q01DX009 (ip), vehicle: saline with Tween-80 93 % of control | dose: 6.25 mg/kg/injection, schedule: Q01DX009 (ip), vehicle: saline with Tween-80 93 % of control | dose: 12.5 mg/kg/injection, schedule: Q01DX009 (ip), vehicle: saline with Tween-80 101 % of control | dose: 25.0 mg/kg/injection, schedule: Q01DX009 (ip), vehicle: saline with Tween-80 96 % of control | [6] 104 % of control

O=C(NN=C1CCCCC1)C(=O)Nc1cccc(C(F)(F)F)c1
inactive: [15] 97 % of control | [16] 92 % of control | [17] 88 % of control

COC1CCCCC1C(=O)C(C#N)C1CCCCC1C1CCCCC1 (stereo not drawn)
inactive: [18] 100 % of control | [19] 98 % of control | [20] 96 % of control

COC(=O)c1cc(-c2ccccc2)c2c(=O)n(-c3ccccc3)[nH]c2n1
inactive: [21] 99 % of control | [22] 100 % of control | [23] 96 % of control

C=CCOCC(O)Cn1cnc2c(N)ncnc21 (stereo not drawn)
inactive: [15] 97 % of control | [16] 106 % of control | [17] 100 % of control

COC(=O)C(C)n1c(C(C)C)csc1=S (stereo not drawn)
inactive: [18] 111 % of control | [19] 110 % of control | [20] 98 % of control

N=C1SCc2ccc3ccccc3c21
inactive: [6] 100 % of control | [7] 124 % of control | [9] 97 % of control

Oc1ccccc1C=NCCN=Cc1ccccc1O
inactive: [6] 99 % of control | [7] 99 % of control | [8] 101 % of control | [9] 105 % of control

CCCCCCCCCCNCCSSCCNC(C)=O
inactive: dose: 1.56 mg/kg/injection, schedule: Q01DX005 (ip), vehicle: Klucel (hydroxypropylcellulose) (HPC) 103 % of control | dose: 3.12 mg/kg/injection, schedule: Q01DX005 (ip), vehicle: Klucel (hydroxypropylcellulose) (HPC) 100 % of control | dose: 6.25 mg/kg/injection, schedule: Q01DX005 (ip), vehicle: Klucel (hydroxypropylcellulose) (HPC) 105 % of control | dose: 12.5 mg/kg/injection, schedule: Q01DX005 (ip), vehicle: Klucel (hydroxypropylcellulose) (HPC) 104 % of control | dose: 25.0 mg/kg/injection, schedule: Q01DX005 (ip), vehicle: Klucel (hydroxypropylcellulose) (HPC) 102 % of control | [15] 98 % of control and 103 % of control

c1ccc2c(c1)cnc1c3ccccc3nn21
inactive: [2] 102 % of control | [3] 96 % of control | [4] 103 % of control

O=[N+]([O-])c1cn(CCCNc2c3ccccc3nc3ccccc23)cn1
inactive: [21] 95 % of control | [22] 107 % of control | [23] 112 % of control

Cc1cc(NS(=O)(=O)c2ccc(N=Nc3c(O)n(-c4ccccc4)n(-c4ccccc4)c3=O)cc2)no1
inactive: [2] 102 % of control | [3] 100 % of control | [4] 92 % of control
